Measured values reported in patent US5935966A, “Pyrimidine carboxylates and related compounds and methods for treating inflammatory conditions” (Signal Pharmaceuticals, Inc., priority 1996, dated 1999).
pIC50: −log10 of the molar value.

Tests used:
[1] = system: popliteal lymph node (graft vs. host); settings: Morris et al. 1990; cited from earlier work
[2] = system: delayed-type hypersensitivity response to oxazolone; settings: Morris et al. 1990; cited from earlier work
[3] = system: NFκB and AP-1; test: NFκB and AP-1 luciferase reporter assays in stable Jurkat T-cells (PMA/PHA stimulated); assay type: cell-based, human; settings: Homo sapiens, average of NFκB and AP-1 assays, read-out: ICm (average of the measurements obtained from the NFκB and AP-1 assays)
Source text: Stable human Jurkat T-cells containing an NFκB binding site (from the MHC promoter) fused to a minimal SV-40 promoter driving luciferase expression were used in this experiment. Cells were split to 3×10^5 cells/mL every 2-3 days (cell concentration should not exceed 1×10^6 cells/mL to keep the cells proliferating in log phase). These cells were counted, resuspended in fresh medium containing 10% Serum-Plus at a density of 1×10^6 cells/mL and plated in 96 well round bottom plates (200 μ.LAMBDA. per well) 18 hours prior to starting the experiment.
Compounds of this invention, dissolved in dimethyl sulfoxide (3.3, 0.33 and 0.03 μg/mL), were then added to the 96 well plates containing the cells and the plates were incubated for 0.5 h at 37° C. Then 50 ng/mL of phorbol 12-myristate-13-acetate (PMA) and 1 μg/mL of phytohemagglutinin (PHA) were added to each well and the cells were incubated for an additional 5 h at 37° C. The plates were centrifuged at 2200 RPM for 3 minutes at room temperature and then the medium was removed. To each well was added 60 μL of cell lysis buffer and the plates were left at room temperature for 0.25 h. Then 40 μL of each cell extract was transferred to a black 96 well plate and 50 μL of luciferase substrate buffer was added. Luminescence was immediately measured using a Packard TopCount.
For AP-1, the assay was run as described above for NFκB except stable Jurkat T-cells were used that contained a collagenase promoter driving luciferase expression. In addition, the concentration of PMA used was 5 ng/mL.
The IC50 values reported in Table 3 are the average of the measurements obtained from the NFκB and AP-1 assays described above.

Compound | activity in popliteal lymph node (graft vs. host) model [1] | activity in delayed-type hypersensitivity (oxazolone) model [2] | pIC50 [3]
O=P1(N(CCCl)CCCl)NCCCO1 (stereo not shown) [cyclophosphamide] | active | active | –
CCc1nc(N(C)N2C(=O)C=C(C)C2=O)ncc1-c1noc(C)n1 [Example 129, 2-[N-(1'-AMINOCITRACONAMIDO)-N-METHYL]-4-ETHYL-5-[5"-METHYL-1",2",4"-OXADIAZOLYL]PYRIMIDINE] | – | – | 5.85
CC1=CC(=O)N(Nc2nc(-c3cccs3)ncc2C#N)C1=O [Example 143, 4-[N-(1'-AMINOCITRACONAMIDO)]-5-CYANO-2-(2'-THIENYL)PYRIMIDINE] | – | – | 5.29
CCc1nc(N(C)N2C(=O)C=C(C)C2=O)ncc1C(=O)c1ccccc1 [Example 102, 5-BENZOYL 2-[N-(1'-AMINOCITRACONAMIDO)-N-METHYL]-4-ETHYLPYRIMIDINE] | – | – | 6.40
CCOC(=O)c1cnc(Cc2ccccc2)nc1NN1C(=O)C=C(C)C1=O [Example 119, ETHYL 4-[N-(1'-AMINOCITRACONAMIDO)]-2-BENZYLPYRIMIDINE-5-CARBOXYLATE] | – | – | 5.15
CCOC(=O)c1cnc(-c2ccc(C(F)(F)F)cc2)nc1NN1C(=O)C=C(C)C1=O [Example 121, ETHYL 4-[N-(1'-AMINOCITRACONAMIDO)]-2-(4'-TRIFLUOROMETHYLPHENYL)PYRIMIDINE-5-CARBOXYLATE] | – | – | 6.40
